The values below are quoted from earlier work in patent US20200338088A1, “Methods for Treating Neutrophilic Dermatoses with SYK Inhibitors” (Rush University Medical Center, priority 2018, published 2020).

The test system of the series is rat collagen-induced arthritis model. Particulars: daily oral dose of 10 mg/kg (10 μg/g), after 7 days.

Take `c1cn2cc(-c3ccc4cn[nH]c4c3)nc(Nc3ccc(N4CCOCC4)cc3)c2n1` [GS-9973, 6-(1H-indazol-6-yl)-N-(4-morpholin-4-ylphenyl)imidazo[1,2-a]pyrazin-8-amine]: the ankle inflammation result is on record as “significantly inhibited ankle inflammation”.
